Assay results published in US20250026746A1, “ENHANCERS OF PARTICULATE GUANYLYL CYCLASE RECEPTOR A” (Mayo Foundation for Medical Education and Research, priority 2021, published 2025).
Counter-ions that a name gives are not always drawn.

Experiments:
[1] = tested on: Primary Human cardiomyocytes; assay: cGMP levels (ELISA) in human cardiomyocytes; format: cell-based; details: acetate salt, 1 or 10 μM, ANP (10^-10 M), vs vehicle
Method: Primary Human cardiomyocytes (HCMs: Catalog No. 6200, Lot No. 6288, PromoCell) were maintained and subcultured according to the manufacturer's protocols. Passage 5 was used in the study. Treatment buffer, Compound 3, Compound 1 and Compound 2 acetate salt, ANP, and vehicle were prepared as described above. Briefly, 5×10^5 of cells/well were grown in 6-well plates until 80 to 90% confluency and were then pretreated with vehicle or Compound 3, Compound 1 or Compound 2 at doses of 1 or 10 μM for 5 min at 37° C., then cells were treated with ANP (10^-10 M) for an additional 10 min at 37° C. Afterward, all cells were washed with PBS once and lysed with 0.1 M HCl at room temperature, and intracellular cGMP levels were measured in the lysate using a commercial cGMP ELISA kit (Enzo Life Sciences) with the acetylation method as instructed by the manufacturer.

[2] = target: T1, extracellular domain human GC-A recombinant protein (Homo sapiens, UniProt P16066); assay: Surface plasmon resonance binding to GC-A receptor; details: acetate salt; for Kd: SPR 25° C., 1:1 Langmuir model
T1 construct: extracellular domain human GC-A recombinant protein; purchased My BioSource, Inc. San Diego, CA
T1 sequence (P16066 33-473 limits assumed): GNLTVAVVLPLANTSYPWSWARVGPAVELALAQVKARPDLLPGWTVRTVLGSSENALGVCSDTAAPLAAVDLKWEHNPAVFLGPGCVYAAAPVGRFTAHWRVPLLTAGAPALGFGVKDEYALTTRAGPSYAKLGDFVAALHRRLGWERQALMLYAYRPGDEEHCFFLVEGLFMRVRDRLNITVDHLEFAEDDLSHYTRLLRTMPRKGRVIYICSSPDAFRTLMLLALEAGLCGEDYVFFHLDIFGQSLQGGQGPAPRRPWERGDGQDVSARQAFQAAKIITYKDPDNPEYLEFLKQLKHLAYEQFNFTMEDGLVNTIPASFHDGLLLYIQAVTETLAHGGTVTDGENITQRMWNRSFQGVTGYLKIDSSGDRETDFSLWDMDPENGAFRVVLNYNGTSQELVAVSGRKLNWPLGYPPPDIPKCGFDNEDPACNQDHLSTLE
Method: Surface plasmon resonance (SPR) measurements were performed at 25° C. on a BI-4500 SPR instrument (Biosensing Instrument Inc. Tempe AZ). As per the instructions by the Biosensing instrument manual, 400 mM nickel sulfate in deionized water was linked to the Ni-NTA sensor chip (Biosensing Instrument Inc. Tempe AZ. Then 30 μg/ml of extracellular domain human GC-A recombinant protein (My BioSource, Inc. San Diego, CA), containing 12 histidine residues on the C-terminus, was then immobilized to the nickel sulfate on the Ni-NTA sensor chip. After, the chip was washed with buffer (150 mM NaCl, 50 μM EDTA pH 7.4, 0).1% DMSO), then 100 μL of sequentially diluted Compound 3 acetate salt (0.125, 0.25, 0.5, 1, 2 μM), Compound 1 acetate salt (6.25, 12.5, 25, 50, 100 nM) or Compound 2 acetate salt (0.125, 0.25, 0.5, 1, 2 μM) was injected at the rate of 60 ul/min and allowed to dissociate for 60 seconds. Data was collected as sensorgrams. Binding kinetics were derived from sensorgrams using BI-Data Analysis Program (Biosensing Instrument, Tempe AZ). Affinity analysis of GC-A with Compound 3, Compound 2 and/or Compound 1 interactions were performed using a 1:1 Langmuir binding model. Two series were performed for all studies.

human GC-A = target: T2, human GC-A (Homo sapiens, UniProt P16066); assay: EC50 and Emax cGMP determination, HTRF, human GC-A overexpressing HEK293 cells; format: cell-based; details: for EC50: EC20 ANP, read-out: EC50 cGMP activities; for EMax cGMP activities / Emax: 100% = saturating ANP (10 nM), 0% = EC20 ANP; for Emax: HEK293, HEK293 GC-A cells, read-out: EMax cGMP activities
T2 construct: host or cells: HEK293
T2 sequence (P16066 33-1061): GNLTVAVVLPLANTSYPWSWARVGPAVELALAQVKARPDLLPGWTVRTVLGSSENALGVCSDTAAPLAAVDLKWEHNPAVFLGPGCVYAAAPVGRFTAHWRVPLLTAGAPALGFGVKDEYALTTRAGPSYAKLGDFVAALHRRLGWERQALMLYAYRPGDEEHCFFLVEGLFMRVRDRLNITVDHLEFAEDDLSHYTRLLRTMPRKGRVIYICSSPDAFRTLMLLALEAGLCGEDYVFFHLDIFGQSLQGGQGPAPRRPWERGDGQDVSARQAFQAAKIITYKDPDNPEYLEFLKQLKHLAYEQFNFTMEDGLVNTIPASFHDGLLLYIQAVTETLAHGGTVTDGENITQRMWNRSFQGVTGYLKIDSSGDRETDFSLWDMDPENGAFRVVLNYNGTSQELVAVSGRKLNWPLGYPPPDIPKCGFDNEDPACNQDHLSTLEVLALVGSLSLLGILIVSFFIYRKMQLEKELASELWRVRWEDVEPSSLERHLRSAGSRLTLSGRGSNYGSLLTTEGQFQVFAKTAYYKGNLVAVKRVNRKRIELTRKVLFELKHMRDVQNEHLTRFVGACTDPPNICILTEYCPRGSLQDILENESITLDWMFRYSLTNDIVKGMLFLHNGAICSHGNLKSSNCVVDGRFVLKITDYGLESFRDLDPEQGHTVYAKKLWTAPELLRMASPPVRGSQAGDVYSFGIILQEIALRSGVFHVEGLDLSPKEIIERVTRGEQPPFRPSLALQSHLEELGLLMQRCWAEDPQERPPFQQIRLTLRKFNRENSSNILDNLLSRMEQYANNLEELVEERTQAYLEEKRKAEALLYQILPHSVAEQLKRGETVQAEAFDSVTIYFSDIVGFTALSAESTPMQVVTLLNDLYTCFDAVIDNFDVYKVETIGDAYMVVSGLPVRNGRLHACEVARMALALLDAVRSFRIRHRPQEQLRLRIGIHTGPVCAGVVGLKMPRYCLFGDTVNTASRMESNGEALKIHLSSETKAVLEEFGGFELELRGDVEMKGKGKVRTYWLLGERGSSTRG
T2 sequence (P01160 124-151 partner limits assumed): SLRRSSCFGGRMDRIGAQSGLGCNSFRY
Method: Test compounds were evaluated for potentiation of cGMP in human GC-A overexpressing HEK293 cells (Cardiorenal Research Laboratory, Mayo Clinic). Test compounds at 10 mM DMSO stock concentration were dispensed into 384 well small volume white plates using Tecan D300e digital dispenser starting at 5 μM or 40 μM concentration and diluted 2-fold for 10-point concentration response. Wells were backfilled with DMSO such that the final concentration of DMSO in all wells was maintained at 0.3% DMSO. Atrial natriuretic peptide (ANP, Phoenix Pharmaceuticals) ANP was prepared as working stock aliquots at 5 μM in phosphate-buffered solution (PBS) with 0.1% bovine serum albumin (BSA) and diluted to […] in buffer plus Tween20 at 0.3% and added to plates to a final concentration equivalent to EC20 ANP in the cGMP assay. GC-A cells in suspension ([…]) in OptiMem media (ThermoFisher 11058-021) supplemented with 2% fetal bovine serum were plated at 1×10^6 cells/mL and assay plates were spun at 1000 rpm for 30 sec and incubated at room temperature for 30 min. GC-A-mediated activation of cGMP production was measured using cGMP CisBio detection homogenous time-resolved florescence (HTRF) competition assay using labeled-cGMP in human GC-A-overexpressing HEK293 cells. 5 μL of d-2 acceptor was dispensed into each well followed by addition of 5 μL of Anti-cGMP Eu-Cryptate antibody donor and plates were spun at 1000 rpm for 30 sec and incubated in the dark at room temperature for 1 hr. HTRF florescence was read on the ClarioStar microplate reader (BMG). A 100% response was determined from wells in the absence of compound and presence of saturating concentration of ANP (10 nM), and 0) % response was determined from wells containing an EC20 concentration of ANP determined for each new lot of ANP. Concentration-response curves for test compounds were analyzed by […] analysis using GraphPad software to determine EC50 and Emax values.

SMILES | Kd [2] [nM] | potency in potentiating ANP-mediated cGMP generation (comparison between forms/enantiomers) (human GC-A; HEK293 GC-A cells) | EC50 (human GC-A; HEK293 GC-A cells) [nM] | EMax cGMP activities (human GC-A; HEK293 GC-A cells) [%] | Emax (human GC-A) [%] | binding for the GC-A receptor compared with Compound 3 and Compound 2 acetate salts ([2]; SPR) | cGMP generation in HCMs in the presence of ANP [1]
CN(C)CCN1CCC[C@@H](C(=O)Nc2nc3c(F)cc(F)cc3s2)C1 [Compound 2 TFA salt, (R)-N-(4,6-difluorobenzo[d]thiazol-2-yl)-1-(2-(dimethylamino)ethyl) piperidine-3-carboxamide] | – | – | 730 | – | 82.7 | – | –
CN(C)CCN1CCC[C@H](C(=O)Nc2nc3c(F)cc(F)cc3s2)C1 [Compound 1 acetate salt, (S)-N-(4,6-difluoro-1,3-benzothiazol-2-yl)-1-[2-(dimethylamino)ethyl]piperidine-3-carboxamide] | 12 | – | 150 | – | 81.5 | greater binding | –
CN(C)CCN1CCC[C@H](C(=O)Nc2nc3c(F)cc(F)cc3s2)C1 [Compound 1 TFA salt, (S)-N-(4,6-difluorobenzo[d]thiazol-2-yl)-1-(2-(dimethylamino)ethyl) piperidine-3-carboxamide] | – | – | 160 | 75.3 | – | – | –

Continued, in another order:

Kd [2] [nM] | potency in potentiating ANP-mediated cGMP generation (comparison between forms/enantiomers) (human GC-A; HEK293 GC-A cells) | EC50 (human GC-A; HEK293 GC-A cells) [nM] | EMax cGMP activities (human GC-A; HEK293 GC-A cells) [%] | Emax (human GC-A) [%] | binding for the GC-A receptor compared with Compound 3 and Compound 2 acetate salts ([2]; SPR) | SMILES | cGMP generation in HCMs in the presence of ANP [1]
176 | more potent | 320 | 84.0 | – | – | CN(C)CCN1CCCC(C(=O)Nc2nc3c(F)cc(F)cc3s2)C1 (racemic) [Compound 3 acetate salt, N-(4,6-difluoro-1,3-benzothiazol-2-yl)-1-[2-(dimethylamino)ethyl]piperidine-3-carboxamide] | dose dependent increase
120 | – | 1320 | 73.1 | – | – | CN(C)CCN1CCC[C@@H](C(=O)Nc2nc3c(F)cc(F)cc3s2)C1 [Compound 2 acetate salt, (R)-N-(4,6-difluoro-1,3-benzothiazol-2-yl)-1-[2-(dimethylamino)ethyl]piperidine-3-carboxamide] | –
– | – | 570 | – | 95.8 | – | CN(C)CCN1CCCC(C(=O)Nc2nc3c(F)cc(F)cc3s2)C1 (racemic) [Compound 3 TFA salt, N-(4,6-difluorobenzo[d]thiazol-2-yl)-1-(2-(dimethylamino)ethyl) piperidine-3-carboxamide] | –
